{"source": "patent US8029768B2", "about": "“Treatment of respiratory diseases” (Sosei R&D Ltd., priority 2000, dated 2011)", "key": {"[1]": {"details": "about 1 mg sample on sinter, 195 ml water reservoir, FIG. 1", "description": "A 195 ml reservoir was used in the dissolution test. The reservoir was filled with water and contained a sampling inlet port and a sampling outlet port. A sintered disk of approximately 50 mm diameter and 3 mm depth was placed in an opening on top of the reservoir, in contact with the water. A known mass (about 1 mg) of the sample to be tested was dropped onto the sinter and a timer started. At various times, 1 ml samples were removed from the reservoir and immediately replaced with 1 ml of water to maintain the volume in the system. The samples were analysed in a Cecil Aquarius CE7200 ultraviolet spectrophotometer at a wavelength of 200 nm. The concentration of the samples was calculated with a previously prepared calibration graph and the concentration versus time was plotted."}, "asthma": {"system": "asthma", "details": "inhaled, Walker et al. 1987; cited from earlier work"}}}
{"smiles": "C[N+]1(C)CCC(OC(=O)C(O)(c2ccccc2)C2CCCC2)C1", "note": "(stereo not shown) [glycopyrrolate]", "values": [{"measurement": "time at which the maximum concentration is achieved", "setting": "[1]", "result": 10, "unit": "min"}, {"measurement": "concentration of glycopyrrolate in the reservoir at 5 minutes", "setting": "[1]; first time point 5 minutes", "result": "greater than 10 mg/l"}, {"measurement": "duration of effective treatment", "setting": "asthma", "result": "up to 12 hours"}, {"measurement": "duration of effective treatment that appears to be maximal", "setting": "asthma", "result": "up to 8 hours"}]}
